Reference: patent US5164391A, “Hydantoin derivatives for treating complications of diabetes and circulatory diseases” (priority 1989, dated 1992)
Where two headings read alike, the source gives them in different places.

What was measured:
thoracic aorta = assay: Action to the aorta of guinea pig (relaxation of contracted spiral samples); set-up: species or system Hartley guinea pigs; conditions: Cavia porcellus, 37° C.
Source text: Hartley guinea pigs (body weight of 300-500 g) were rendered unconscious fainted by knocking their head and fixed upwardly. A thoracic aorta was taken out to prepare spiral samples, each having size of about 2×25 mm. The sample was suspended in a Magnus tube under a load of about 1 g and upper end of the sample was connected through a silk thread to a FD pick-up to record a change in isometric tension.
Composition of Krebs-Henseleit solution:
Prior to the experiment, the sample in the Magnus tube was left to stand, as it was, for 60 to 90 minutes and in such period of time, the Krebs-Henseleit solution was exchanged to fresh one at an interval of 20 to 30 minutes.
When the contraction of the sample became constant, the compound to be tested was gradually added in a amount starting at a concentration of 10^-8, to […] to observe the contraction of the sample. Finally, papaverine was added therein, so as to make its final concentration of 2×10^-5 g/ml, to check and record also the relaxing reaction or atony caused by the papaverine.

right atrium = assay: Action to heart of guinea pig: right atrium (pulsations); set-up: species or system Hartley guinea pigs; conditions: right atrium, 32°±1° C.; for inhibition at 100 µM: Cavia porcellus, read-out: Pulsation;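 for all read-outs here: Dash means no recognizable influence on pulsation rate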
Description: (§1) Hartley guinea pigs (body weight of 300-400 g) were rendered unconscious by knocking their head and fixed upwardly to exenterate their heart. […] The vessel was previously filled with the Krebs-Henseleit solution and the said mixed gas was continuously fed therein.
(§2) Samples were prepared by separating from a ventricular muscle a right and left atrium, along an auricloventricular furrow or groove from the center-line of the right and left auricles.
A contraction of the sample, due to a compound to be tested, was recorded through an FD pick-up. Concurrently, pulsations were input to a measuring unit to count and record number of the pulsations.

left atrium = assay: Action to heart of guinea pig: left atrium (contraction power); set-up: species or system Hartley guinea pigs; conditions: left atrium, 32°±1° C.
Description: as §1, §2
The atrium was driven by contacting it with a platinum bipolar electrode attached to the cellfin and by stimulating the same with a rectangular pulse (1 Hz, 1 msec, 10 V). A movement of the sample was recorded by connecting the sample to a recorder through a silk thread and a FD pick-up.

[1] = system: blood pressure and cardiac pulsation; assay: Influences upon the blood pressure and cardiac pulsation in guinea pigs; assay type: in vivo, Hartley guinea pigs; conditions: i.v.
Source text: Influences of compounds according to the invention upon the blood pressure and cardiac pulsation were checked with use of Hartley guinea pigs, as experimental animal.

[2] = contraction by KCl 2.5×10^-2 M, read-out: IC50 KCl contraction (50% relaxing)
[3] = contraction by norepinephrine 10^-6 g/ml, read-out: IC50 N.E. contraction (50% relaxing)
[4] = 10 mg/kg, Example 17 marked (*) p < 0.001
[5] = 10 mg/kg, Examples 16 and 17 marked (*) p < 0.001

NC(=O)[C@@H]1C[C@]2(NC(=O)N(CCCN3CCC(O)CC3)C2=O)c2cc(F)ccc2O1 [Example 15, (2S,4S)-1'-[3-(4-Hydroxypiperidin-1-yl)propyl]-6-fluoro-2',5'-dioxospiro[chroman-4,4'-imidazolidine]-2-carboxamide]
IC50 (thoracic aorta; [2]): 8 µM | IC50 (thoracic aorta; [3]): 2 µM | Pulsation (right atrium; 10^-4 (M)): - | Pulsation (right atrium; 10^-5 (M)): - | Contraction (left atrium; 10^-4 (M)): - | Contraction (left atrium; 10^-5 (M)): - | Change in blood pressure ([1]; 3 mg/kg): -2.6 ± 1.8% | Change in cardiac pulsation ([1]; 3 mg/kg): 0.0 ± 0.0% | Change in cardiac pulsation [1, 4]: -5.4 ± 2.9% | Change in blood pressure [1, 5]: -12.2 ± 5.6%

CCNC(=O)[C@@H]1C[C@]2(NC(=O)N(CCCN3CCC(O)CC3)C2=O)c2cc(F)ccc2O1 [Example 16, (2S,4S)-N-Ethyl-1'-[3-(4-hydroxypiperidin-1-yl)propyl]-6-fluoro-2',5'-dioxospiro[chroman-4,4'-imidaxolidine]-2-carboxamide]
IC50 (thoracic aorta; [2]): 59 µM | IC50 (thoracic aorta; [3]): 5 µM | Pulsation (right atrium; 10^-5 (M)): - | inhibition at 100 µM (right atrium; 10^-4 (M)): 10 to 20% | Contraction (left atrium; 10^-4 (M)): - | Contraction (left atrium; 10^-5 (M)): - | Change in blood pressure ([1]; 3 mg/kg): -4.0 ± 4.0% | Change in cardiac pulsation ([1]; 3 mg/kg): -1.2 ± 1.2% | Change in cardiac pulsation [1, 4]: -4.7 ± 4.6% | Change in blood pressure [1, 5]: -21.3 ± 2.4%

CCCCNC(=O)[C@@H]1C[C@]2(NC(=O)N(CCCN3CCC(O)CC3)C2=O)c2cc(F)ccc2O1 [Example 17, (2S,4S)-N-Butyl-1'-[3-(4-hydroxypiperidin-1-yl)propyl]-6-fluoro-2',5'-dioxospiro[chroman-4,4'-imidazolidine]-2-carboxamide]
IC50 (thoracic aorta; [2]): 1 µM | IC50 (thoracic aorta; [3]): 30 µM | Pulsation (right atrium; 10^-5 (M)): - | inhibition at 100 µM (right atrium; 10^-4 (M)): 10 to 20% | inhibition at 100 µM (left atrium; Cavia porcellus, 10^-4 (M), read-out: Contraction): > 20% | inhibition at 10 µM (left atrium; Cavia porcellus, 10^-5 (M), read-out: Contraction): 10 to 20% | Change in blood pressure ([1]; 3 mg/kg): -3.0 ± 3.0% | Change in cardiac pulsation ([1]; 3 mg/kg): -1.1 ± 1.1% | Change in cardiac pulsation [1, 4]: -48.9 ± 2.2% | Change in blood pressure [1, 5]: -43.8 ± 4.9%
